6 compounds from patent US20220146526A1, “METHOD FOR EVALUATING SAMPLE, ANALYSIS METHOD, METHOD FOR DETECTING DEGRADED SAMPLE, MARKER FOR DETECTING DEGRADED BLOOD PLASMA SAMPLE, AND MARKER FOR DETECTING DEGRADED SERUM SAMPLE” (SHIMADZU CORPORATION, priority 2019, published 2022) can be followed below.

Common to all, as to assay type: physicochemical, human
A short description of data set [1]: LC/MS of serum sample: number of times of freezing and thawing (Table M). Set-up: key to Rate of increase or decrease: detection intensity relative to 1 at 2 freeze-thaw cycles. As to conditions: for Number of times when compound is affected / Increase or decrease: serum sample, LC/MS; for Number of times when compound is affected: detection intensity changed by 30% or more vs 2 times of freezing and thawing; for Increase or decrease: detection intensity vs 2 times of freezing and thawing. The procedure, abridged:
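Serum was isolated at room temperature after centrifugation at room temperature, 3500 rpm, 5 minutes, then frozen and freeze-thawed 2, 4, 6 or 10 times. LC/MS used a Discovery HS F5-3 column at 40° C with formic acid water/acetonitrile, electrospray MRM. Intensity is relative to 2 freeze-thaw cycles.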

The nature of data set [2]: GC/MS of blood plasma sample: time from blood collection to centrifugation (Table A). The settings on record: blood collection to centrifugation. The procedure, abridged: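 EDTA blood from a healthy subject was cooled at 4° C, centrifuged at 4° C, 3000 rpm, 15 minutes, and plasma was frozen. After methoxymation and trimethylsilylation, samples ran on GC/MS (BPX5 column, 60-330° C gradient, electron ionization, MRM). Intensity is relative to 15 minutes from collection to centrifugation.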

Data set [3] is described as follows: LC/MS of blood plasma sample: time from blood collection to cooling of blood (Table E). Set-up: key to Rate of increase or decrease / Rate of increase or decrease (first value, increase): detection intensity relative to ≤1 min to cooling = 1. The settings on record: for Rate of increase or decrease: detection intensity relative to 1 at 1 minute or less, blood collection to cooling 5 minutes; for Increase or decrease: detection intensity, blood collection to cooling 5 minutes or more vs 1 minute or less. As to the method:
At room temperature, 5 mL of blood from a healthy subject was taken into a blood-collecting vessel containing EDTA, and the blood-collecting vessel was inverted for mixing, then cooled, and allowed to stand at 4° C. Here, in order to investigate how the detection intensity of molecules contained in the sample was affected in a case where the time to cooling was set to 5 minutes or more as compared to that in a case where the time to cooling was set to 1 minute or less, preparations were performed under both the former condition and the latter condition. After standing, the blood sample was subjected to centrifugation under a condition of 4° C., 3000 rpm, and 15 minutes. […] After centrifugation, the blood-collecting vessel was left to stand at room temperature for 30 minutes, and the blood plasma was isolated during this 30 minutes. The obtained blood plasma sample was frozen and stored. Here, in order to investigate how the detection intensity of molecules contained in the sample was affected in cases where freezing and thawing was performed 4 times, 6 times, and 10 times after freezing as compared to that in a case where freezing and thawing was performed 2 times after freezing, freezing and thawing was performed under the respective conditions of 2, 4, 6, and 10 times.
(§1) Frozen blood plasma samples and serum samples were subjected to GC/MS or LC/MS. In GC/MS, the blood plasma samples and serum samples were subjected to methoxymation and trimethylsilylation and then introduced to GC-MS.
(§2) Analysis column: Discovery HS F5-3 (inner diameter of 2.1 mm, length of 150 mm, film thickness of 3 μm) (Sigma-Aldrich)
(§3) Column temperature: 40° C.
(§4) (A) 0.1% formic acid (dissolved in water)
(§5) (B) 0.1% formic acid (dissolved in acetonitrile)
(§6) Flow velocity: 0.25 mL/min
(§7) Ionization method: electrospray
(§8) Temperature: • Desolvation Line (DL) temperature: 250° C. • Heat block temperature: 400° C. • Interface temperature: 300° C.
(§9) Gas flow rate: • Nebulizer gas flow rate: 3.0 L/min • Drying gas flow rate: 10.0 L/min • Heating gas flow rate: 10.0 L/min
(§10) Mode: multiple reaction monitoring (MRM)
The rate of increase or decrease in Table E is the value of detection intensity relative to 1 that is the detection intensity in a case where the time from blood collection to cooling is set to 1 minute or less.

The nature of data set [4]: LC/MS of blood plasma sample: time from blood collection to centrifugation (Table D). The settings on record: for Increase or decrease: detection intensity; for Increase or decrease / Rate of increase or decrease: blood collection to centrifugation; for Rate of increase or decrease: detection intensity relative to 1 at 15 minutes. The procedure, abridged: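 Healthy-subject blood (5 mL, EDTA) cooled and held at 4 °C before centrifugation (4 °C, 3000 rpm, 15 min), with plasma then frozen. LC/MS on Discovery HS F5-3 column at 40 °C, 0.1% formic acid water/acetonitrile, 0.25 mL/min, electrospray, MRM; intensities relative to 15 min collection-to-centrifugation set as 1.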

A short description of data set [5]: GC/MS of blood plasma sample: number of times of freezing and thawing (Table C). A digest of the protocol:
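EDTA plasma from a healthy subject, cooled within 1 min or after 5+ min, centrifuged 4 °C/3000 rpm/15 min, frozen, then freeze-thawed 2, 4, 6 or 10 times. Methoximated, trimethylsilylated samples run by GC/MS (BPX5 column, EI, MRM). Values are detection intensity relative to 2 freeze-thaw cycles set as 1.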

A short description of data set [6]: LC/MS of blood plasma sample: number of times of freezing and thawing (Table F). As to conditions: for Rate of increase or decrease: detection intensity relative to 1 at 2 times; for Increase or decrease: detection intensity. A digest of the protocol: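 Human blood from a healthy subject drawn into EDTA tubes, cooled to 4° C within 1 min or after ≥5 min, centrifuged at 4° C, 3000 rpm, 15 min. Plasma frozen, then freeze-thawed 2, 4, 6 or 10 times and analysed by LC/MS (ESI, MRM). Intensities expressed relative to 2 freeze-thaw cycles set as 1.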

Data set [7] can be described thus: LC/MS of serum sample: time from centrifugation to isolation (Table K). Also on record: key to Rate of increase or decrease: detection intensity relative to the 30-minute value set as 1. As to conditions: for Rate of increase or decrease: detection intensity relative to 1 at 30 minutes; for Increase or decrease / Time when compound is affected: serum sample, LC/MS; for Increase or decrease: detection intensity vs 30 minutes from centrifugation to isolation; for Time when compound is affected: time from centrifugation to isolation, detection intensity changed by 30% or more vs 30 minutes. How it is done: After standing, the blood sample was subjected to centrifugation under a condition of room temperature, 3500 rpm, and 5 minutes. […] After centrifugation, the blood-collecting vessel was left to stand at room temperature, and the serum was isolated during this time. Here, in order to investigate how the detection intensity of molecules contained in the sample was affected in cases where the time during which the blood-collecting vessel was left at room temperature was set to 1 hour and 6 hours as compared to that in a case where the time was set to 30 minutes, preparations were performed under the respective conditions of 30 minutes, 1 hour, and 6 hours. The obtained serum sample was frozen and stored. Here, in order to investigate how the detection intensity of molecules contained in the sample was affected in cases where freezing and thawing was performed 4 times, 6 times, and 10 times after freezing as compared to that in a case where freezing and thawing was performed 2 times after freezing, freezing and thawing was performed under the respective conditions of 2, 4, 6, and 10 times.
as §1, §2, §3, §4, §5, §6, §7, §8, §9, §10
The rate of increase or decrease in Table K is the value of detection intensity relative to 1 that is the detection intensity in a case where the time from centrifugation to isolation is set to 30 minutes.

Data set [8] is described as follows: LC/MS of serum sample: time from blood collection to centrifugation (Table J). As to conditions: for Increase or decrease / Time when compound is affected: serum sample, LC/MS; for Increase or decrease: detection intensity vs 15 minutes from blood collection to centrifugation; for Time when compound is affected: time from blood collection to centrifugation, detection intensity changed by 30% or more vs 15 minutes; for Rate of increase or decrease: after 4 hours from blood collection to centrifugation, detection intensity relative to 1 at 15 minutes. The procedure, abridged: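 Serum from blood centrifuged at room temperature, 3500 rpm, 5 min, then frozen; analysed by LC/MS on a Discovery HS F5-3 column at 40 °C. Mobile phase: 0.1% formic acid in water/acetonitrile, 0.25 mL/min, electrospray MRM. Values are intensity relative to a 15 min collection-to-centrifugation time.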

The mark [9] stands for this setting: 6 times of freezing and thawing, relative to 1 at 2 times, different from individual to individual, first value (increase).
The mark [10] stands for this setting: 6 times of freezing and thawing, relative to 1 at 2 times, different from individual to individual, second value (decrease).
The mark [11] stands for this setting: freezing and thawing 10 times vs 2 times.
The mark [12] stands for this setting: freezing and thawing 4 times vs 2 times.
Where [13] appears, read: 6 times of freezing and thawing, detection intensity relative to 1 at 2 times.

As for `CN(C)CC(=O)O` [Dimethylglycine], the “Rate of increase or decrease” value was determined as 1.34 in data set [1] (setting [9]); 0.61 in data set [1] (setting [10]); 1.41 in data set [2] (detection intensity relative to 1 at 15 minutes, after 12 hours); 0.66 in data set [3]; 1.34 in data set [5] (detection intensity relative to 1 at 2 times, freezing and thawing 10 times); 1.37 in data set [6] (freezing and thawing 10 times). For the same compound, the “Number of times when compound is affected” value (from here on “Number of times”) in data set [1] is on record as 6 times. Besides, the Increase or decrease entry in data set [1] is on record as “Different from individual”; in data set [2] (detection intensity, after 12 hours vs 15 minutes), “Increase”; in data set [3], “Decrease”; in data set [4] (after 12 hours vs 15 minutes) it was “Different from individual”; in data set [5] (detection intensity, freezing and thawing 10 times vs 2 times), “Increase”; in data set [6] (setting [11]), “Increase”. For the same compound, the “Rate of increase or decrease (second value, decrease)” value in data set [4] (different from individual to individual, individuals with decrease, relative to 1 at 15 minutes, collection to centrifugation, after 12 hours) was 0.63. Also, the “Rate of increase or decrease (first value, increase)” value in data set [4] (different from individual to individual, individuals with increase, relative to 1 at 15 minutes, collection to centrifugation, after 12 hours) is recorded as 1.57.
On to `Nc1ncnc2c1ncn2[C@@H]1O[C@H](COP(=O)(O)O)[C@@H](O)[C@H]1O` [Adenosine monophosphate], for which the “Rate of increase or decrease” value is recorded as 0.13 in data set [7] (after 1 hour from centrifugation to isolation); 0.23 in data set [1] (4 times of freezing and thawing, detection intensity relative to 1 at 2 times); 1.56 in data set [4] (after 4 hours); 1.50 in data set [6] (freezing and thawing 4 times). Also, the Increase or decrease result in data set [7] is “Decrease”; in data set [1] it was “Decrease”; in data set [3], “Different from individual”; in data set [4] (after 4 hours vs 15 minutes), “Increase”; in data set [6] (setting [12]), “Increase”. Further, in data set [7], the “Time when compound is affected” value is listed as “After 1 hour hours”. In addition, the “Number of times” value in data set [1] is given as 4 times. Besides, in data set [3] (different from individual to individual, individuals with decrease, relative to 1 at 1 minute or less, collection to cooling 5 minutes), the “Rate of increase or decrease (second value, decrease)” value came to 0.62. Moreover, in data set [3] (different from individual to individual, individuals with increase, relative to 1 at 1 minute or less, collection to cooling 5 minutes), the “Rate of increase or decrease (first value, increase)” value is given as 1.43.
Turning to `C[C@H](CCC(=O)O)[C@H]1CC[C@H]2[C@@H]3[C@H](O)C[C@@H]4C[C@H](O)CC[C@]4(C)[C@H]3C[C@H](O)[C@]12C` [Cholic acid], the “Rate of increase or decrease” value in data set [1] (setting [13]) came to 0.57; in data set [3] it was 1.36; in data set [4] (after 12 hours) it was 1.99; in data set [6] (freezing and thawing 10 times), 3.26. In addition, the “Number of times” value in data set [1] was 6 times. Further, the Increase or decrease result in data set [1] is reported as “Decrease”; in data set [3] it was “Increase”; in data set [4] (after 12 hours vs 15 minutes), “Increase”; in data set [6] (setting [11]) it was “Increase”.
For the compound `O=C(O)[C@@H]1CCCN1` [Proline], the “Rate of increase or decrease” value is on record as 2.35 in data set [7] (after 6 hours from centrifugation to isolation); 0.59 in data set [1] (10 times of freezing and thawing, detection intensity relative to 1 at 2 times); 1.41 in data set [3]; 2.20 in data set [4] (after 4 hours). Also, the Increase or decrease result is reported as “Increase” in data set [7]; “Decrease” in data set [1]; “Increase” in data set [8]; “Increase” in data set [3]; “Increase” in data set [4] (after 4 hours vs 15 minutes). Besides, the “Time when compound is affected” value in data set [7] is recorded as “After 6 hours”; in data set [8], “After 12 hours”. Besides, the “Number of times” value in data set [1] is 10 times.
Regarding `N[C@@H](Cc1ccc(O)c(O)c1)C(=O)O` [Dopa], the “Rate of increase or decrease” value in data set [1] (setting [9]) turned out to be 1.30; in data set [1] (setting [10]) it was 0.31; in data set [8], 0.56; in data set [3], 2.30; in data set [4] (after 4 hours), 2.57; in data set [6] (freezing and thawing 4 times), 0.95. In addition, the “Number of times” value in data set [1] is listed as 6 times. Also, the Increase or decrease entry in data set [1] is listed as “Different from individual”; in data set [8], “Decrease”; in data set [3], “Increase”; in data set [4] (after 4 hours vs 15 minutes) it was “Increase”; in data set [6] (setting [12]) it was “Decrease”. For the same compound, the “Time when compound is affected” value in data set [8] is listed as “After 4 hours”.
Consider `NC(=O)c1cccnc1` [Nicotinamide], for which the “Rate of increase or decrease” value in data set [1] (setting [13]) came out at 0.69; in data set [8], 2.16; in data set [3] it was 1.40; in data set [4] (after 4 hours), 1.44. Further, in data set [1], the “Number of times” value stood at 6 times. The Increase or decrease entry in data set [1] is “Decrease”; in data set [8], “Increase”; in data set [3], “Increase”; in data set [4] (after 4 hours vs 15 minutes), “Increase”; in data set [6] (freezing and thawing 6 times vs 2 times), “Increase”. In addition, the “Time when compound is affected” value in data set [8] is recorded as “After 4 hours”.
